Assay results published in US20050137130A1, “Medical treatment” (priority 2001, published 2005).

Tested on: Notch signalling in CHO-N2 (N27#11) cells expressing full length human Notch2
Experiment: CHO-N2 (N27) luciferase reporter assay, CHO-Delta antagonist assay
Format: cell-based
Conditions: soluble protein, N27#11 reporter cells co-cultured with CHO-Delta cells overnight
Excerpt: An adenovirus major late promoter TATA-box motif with BglII and HindIII cohesive ends was generated as follows:
This was cloned into plasmid pGL3-Basic (Promega) between the BgiII and HindIII sites to generate plasmid pGL3-AdTATA.
A TP1 promoter sequence (TP1; equivalent to 2 CBF1 repeats) with BamH1 and BglII cohesive ends was generated as follows:
This sequence was pentamerised by repeated insertion into a BglII site and the resulting TP1 pentamer (equivalent to 10 CBF1 repeats) was inserted into pGL3-AdTATA at the BglII site to generate plasmid pLOR91.
A cDNA clone spanning the complete coding sequence of the human Notch2 gene (see, eg GenBank Accession No AF315356) was constructed as follows. A 3′ cDNA fragment encoding the entire intracellular domain and a portion of the extracellular domain was isolated from a human placental cDNA library (OriGene Technologies Ltd., USA) using a PCR-based screening strategy. […]
CHO-Delta cells (as described above) were maintained in DMEM plus 10% (HI)FCS plus glutamine plus P/S plus 0.5 mg/ml G418. Just prior to use the cells were removed from a T80 flask using 0.02% EDTA solution (Sigma), spun down and resuspended in 10 ml DMEM plus 10%(HI)FCS plus glutamine plus P/S. 10 μl of cells were counted and the cell density was adjusted to 5.0×10^5 cells/ml with fresh DMEM plus 10%(HI)FCS plus glutamine plus P/S. […]

Substance	inhibition of Notch signalling from CHO-Delta cells
hDelta1-IgG4Fc: fusion protein comprising the extracellular domain of human Delta1 fused to the Fc domain of human IgG4 (SEQ ID NO: 5)	inhibition of Notch signalling
hJagged1EGF1&2-IgG4Fc: human jagged1 sequence up to the end of EGF2 (leader, amino terminal, DSL, EGF1+2) fused to the Fc domain of human IgG4 (SEQ ID NO: 10)	substantially the same inhibition of Notch signalling
